# Source: patent US20250100993A1, “2-SUBSTITUTED THIAZOLE HSD17B13 INHIBITORS AND USES THEREOF” (Inipharm, Inc., priority 2022, published 2025)
# pIC50, pKi: −log10 of the molar value.
# Biological target: HSD17B13 (Homo sapiens (Human), UniProt Q7Z5P4)
# Experiment: LC/MS estrone detection assay for HSD17B13 activity (estradiol to estrone)
# Type: biochemical
# Settings: estradiol substrate, LC-MS/MS estrone detection
# Procedure: The liquid chromatography/mass spectrometry (LC/MS) estrone detection assay monitors the conversion of estradiol to estrone by HSD17B13. This assay was undertaken in a 96 wp format (Eppendorf deep well Plate 96/500) in an 80 μl reaction volume containing: 4 μM of Estradiol (E2; Cayman; Ser. No. 10/006,315), 6 mM NAD+(Sigma; #N0623) and 30 nM HSD17B13 enzyme (in-house; E. coli expressed His-tagged, purified, soluble protein) in a reaction containing 1M potassium phosphate buffer pH 7.4, with 0.5% vehicle (DMSO). Reactions were incubated for 2 hours at 26.5° C., and estradiol (E2) conversion to estrone (E1) was quantitated by LC-MS/MS based analyte detection for both E2 and E1 using LCMS grade reagents.
# Reactions were terminated by the addition of two volumes of acetonitrile (MeCN; LCMS grade; CAS #75/05/8) containing deuterated (D4)-E1 used as internal standard (Clear Synth; #CS-T-54273; 500 ng/mL final concentration). Samples were applied to pre-prepared Bond Elut-C18 extraction cartridges (3 mL; Agilent; Ser. No. 12/102,028), washed and eluted in MeCN. Eluates were dried under nitrogen and re-suspended in 60% methanol (LCMS grade methanol; CAS #67/56/1) before submission for analysis. Aqueous linearity for E2 and E1 were included for quantification.
# Analysis of samples was undertaken on a XBridge BEH C18 column (Waters; #186003033) using 0.1% Diethyl Amine in MeCN (mobile phase A; DEA CAS #109-89-7) and 0.1% Diethyl Amine in milli-Q water (mobile phase B) in a 3 min gradient allowing 25% B. Analytes were detected in negative mode using MRM analysis, with E2 having a RT of 1.85 min and E1 having a RT of 2 min. Activity of the enzyme, in the absence of NAD+, was used to evaluate specificity of conversion. Enzyme activity in the presence of test samples was expressed as a percentage of the uninhibited enzyme activity, and plotted versus inhibitor concentration. Non-linear regression was performed using a four-parameter logistic model and GraphPad Prism software (GraphPad Software, La Jolla, CA). All assessments were undertaken in duplicate evaluations and pooled during extraction process and subsequently injected as duplicates for LC-MS/MS analysis.
# Chain of HSD17B13 (Q7Z5P4 20-300): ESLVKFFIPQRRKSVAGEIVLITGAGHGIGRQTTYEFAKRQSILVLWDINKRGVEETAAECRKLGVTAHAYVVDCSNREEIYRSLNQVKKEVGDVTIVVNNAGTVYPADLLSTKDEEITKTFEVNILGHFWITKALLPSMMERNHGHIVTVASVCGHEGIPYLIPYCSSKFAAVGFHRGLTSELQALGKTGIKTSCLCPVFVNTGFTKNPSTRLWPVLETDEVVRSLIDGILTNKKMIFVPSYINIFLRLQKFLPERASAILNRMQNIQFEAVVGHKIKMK
row,SMILES,pIC50
1,"Cn1cc(C(=O)NCCC(C)(C)C)c(NC(=O)c2cc(Cl)c(O)c(Cl)c2)n1 [Example 53, 3-(3,5-dichloro-4-hydroxybenzamido)-N-(3,3-dimethylbutyl)-1-methyl-1H-pyrazole-4-carboxamide]",6.00 to 6.30
2,"Cn1ncc(C(=O)NCc2ccccc2C(F)(F)F)c1NC(=O)c1cc(Cl)c(O)c(Cl)c1 [Example 7, 5-(3,5-dichloro-4-hydroxybenzamido)-1-methyl-N-(2-(trifluoromethyl)benzyl)-1H-pyrazole-4-carboxamide]",5.00 to 6.00
3,"O=C(Nc1scnc1C(=O)N1CCC2(CCCCC2)C1)c1cc(Cl)c(O)c(Cl)n1 [Example 31, N-(4-(2-azaspiro[4.5]decane-2-carbonyl)thiazol-5-yl)-4,6-dichloro-5-hydroxypicolinamide]",5.00 to 6.00
4,"Cn1ncc(C(=O)NCc2ccccc2C(F)(F)F)c1NC(=O)c1cc(Cl)c(O)c(Cl)n1 [Example 10, 4,6-dichloro-5-hydroxy-N-(1-methyl-4-((2-(trifluoromethyl)benzyl)carbamoyl)-1H-pyrazol-5-yl)picolinamide]",5.00 to 6.00
5,"O=C(Nc1scnc1C(=O)NC1CCC2(CC1)CNC2)c1cc(Cl)c(O)c(Cl)n1 [Example 37, 5-(4,6-dichloro-5-hydroxypicolinamido)-N-(2-azaspiro[3.5]nonan-7-yl)thiazole-4-carboxamide]",< 5.00
6,"O=C(Nc1nn(CC(F)(F)F)cc1C(=O)NCc1ccccc1C(F)(F)F)c1cc(Cl)c(O)c(Cl)n1 [Example 50, 4,6-dichloro-5-hydroxy-N-(1-(2,2,2-trifluoroethyl)-4-((2-(trifluoromethyl)benzyl)carbamoyl)-1H-pyrazol-3-yl)picolinamide]",6.30 to 7.00
7,"CC(C)n1cc(C(=O)NCc2ccccc2C(F)(F)F)c(NC(=O)c2cc(Cl)c(O)c(Cl)n2)n1 [Example 48, 4,6-dichloro-5-hydroxy-N-(1-isopropyl-4-((2-(trifluoromethyl)benzyl)carbamoyl)-1H-pyrazol-3-yl)picolinamide]",6.30 to 7.00
8,"O=C(Nc1scnc1C(=O)NCC12CC3CC(CC(C3)C1)C2)c1cc(Cl)c(O)c(Cl)n1 [Example 30, N-(adamantan-1-ylmethyl)-5-(4,6-dichloro-5-hydroxypicolinamido)thiazole-4-carboxamide]",6.30 to 7.00
9,"O=C(Nc1ccc(F)c2nnn(Cc3ccccc3C(F)(F)F)c(=O)c12)c1cc(Cl)c(O)c(Cl)n1 [Example 13, 4,6-dichloro-N-(8-fluoro-4-oxo-3-(2-(trifluoromethyl)benzyl)-3,4-dihydrobenzo[d][1,2,3]triazin-5-yl)-5-hydroxypicolinamide]",6.30 to 7.00

# The next lines start with the values.
row,pIC50,SMILES
1,6.30 to 7.00,"Cc1nc(C(=O)NCc2ccccc2OC(F)(F)F)c(NC(=O)c2cc(Cl)c(O)c(Cl)c2)s1 [Example 21, 5-(3,5-dichloro-4-hydroxybenzamido)-2-methyl-N-(2-(trifluoromethoxy)benzyl)thiazole-4-carboxamide]"
2,6.30 to 7.00,"O=C(Nc1scnc1C(=O)NC1CCOc2ccccc21)c1cc(Cl)c(O)c(Cl)n1 (centres unmarked) [Example 43, N-(chroman-4-yl)-5-(4,6-dichloro-5-hydroxypicolinamido)thiazole-4-carboxamide]"
3,6.30 to 7.00,"Cc1nc(C(=O)NCc2ccccc2OC(F)(F)F)c(NC(=O)c2cc(Cl)c(O)c(Cl)n2)s1 [Example 22, 5-(4,6-dichloro-5-hydroxypicolinamido)-2-methyl-N-(2-(trifluoromethoxy)benzyl)thiazole-4-carboxamide]"
4,6.30 to 7.00,"Cc1nsc(NC(=O)c2cc(Cl)c(O)c(Cl)n2)c1C(=O)NCc1ccccc1OC(F)(F)F [Example 29, 5-(4,6-dichloro-5-hydroxypicolinamido)-3-methyl-N-(2-(trifluoromethoxy)benzyl)isothiazole-4-carboxamide]"
5,6.30 to 7.00,"O=C(Nc1sc(-c2cccnc2)nc1C(=O)NCc1ccccc1C(F)(F)F)c1cc(Cl)c(O)c(Cl)n1 [Example 51, 5-(4,6-dichloro-5-hydroxypicolinamido)-2-(pyridin-3-yl)-N-(2-(trifluoromethyl)benzyl)thiazole-4-carboxamide]"
6,≥ 7.00,"Cc1nc2c(F)ccc(NC(=O)c3cc(Cl)c(O)c(Cl)c3)c2c(=O)n1[C@H]1CC[C@@H]1c1ccccc1 [Example 16, 3,5-dichloro-N-(8-fluoro-2-methyl-4-oxo-3-((1S,2R)-2-phenylcyclobutyl)-3,4-dihydroquinazolin-5-yl)-4-hydroxybenzamide]"
7,6.30 to 7.00,"O=C(Nc1nn(-c2ccccc2)cc1C(=O)NCc1ccccc1C(F)(F)F)c1cc(Cl)c(O)c(Cl)n1 [Example 8, 4,6-dichloro-5-hydroxy-N-(1-phenyl-4-((2-(trifluoromethyl)benzyl)carbamoyl)-1H-pyrazol-3-yl)picolinamide]"
8,6.30 to 7.00,"Cc1ccc(NC(=O)c2cc(Cl)c(O)c(Cl)n2)c2c(=O)n(Cc3ccccc3C(F)(F)F)nnc12 [Example 12, 4,6-dichloro-5-hydroxy-N-(8-methyl-4-oxo-3-(2-(trifluoromethyl)benzyl)-3,4-dihydrobenzo[d][1,2,3]triazin-5-yl)picolinamide]"
9,6.30 to 7.00,"Cc1nc(C(=O)NCc2ccccc2C(F)(F)F)c(NC(=O)c2cc(Cl)c(O)c(Cl)n2)s1 [Example 26, 5-(4,6-dichloro-5-hydroxypicolinamido)-2-methyl-N-(2-(trifluoromethyl)benzyl)thiazole-4-carboxamide]"
10,≥ 7.00,"O=C(Nc1ccc(F)c2nnn(Cc3ccccc3C(F)(F)F)c(=O)c12)c1cc(Cl)c(O)c(Cl)c1 [Example 14, 3,5-dichloro-N-(8-fluoro-4-oxo-3-(2-(trifluoromethyl)benzyl)-3,4-dihydrobenzo[d][1,2,3]triazin-5-yl)-4-hydroxybenzamide]"
11,6.30 to 7.00,"Cn1cc(C(=O)NCc2ccccc2C(F)(F)F)c(NC(=O)c2cc(Cl)c(O)c(Cl)n2)n1 [Example 2, 4,6-dichloro-5-hydroxy-N-(1-methyl-4-((2-(trifluoromethyl)benzyl)carbamoyl)-1H-pyrazol-3-yl)picolinamide]"
12,6.30 to 7.00,"CC(C)CCNC(=O)c1ncsc1NC(=O)c1cc(Cl)c(O)c(Cl)n1 [Example 39, 5-(4,6-dichloro-5-hydroxypicolinamido)-N-isopentylthiazole-4-carboxamide]"
13,≥ 7.00,"O=C(Nc1scnc1C(=O)NC12C[C@H]3C[C@@H](C1)C[C@@H](C2)C3)c1cc(Cl)c(O)c(Cl)n1 [Example 40, N-((3s,5s,7s)-adamantan-1-yl)-5-(4,6-dichloro-5-hydroxypicolinamido)thiazole-4-carboxamide]"
14,6.30 to 7.00,"Cn1cc(C(=O)NCc2ccccc2C(F)(F)F)c(NC(=O)c2cc(Cl)c(O)c(Cl)c2)n1 [Example 6, 3-(3,5-dichloro-4-hydroxybenzamido)-1-methyl-N-(2-(trifluoromethyl)benzyl)-1H-pyrazole-4-carboxamide]"
15,≥ 7.00,"Cc1nsc(NC(=O)c2cc(Cl)c(O)c(Cl)n2)c1C(=O)NCc1ccccc1C(F)(F)F [Example 38, 5-(4,6-dichloro-5-hydroxypicolinamido)-3-methyl-N-(2-(trifluoromethyl)benzyl)isothiazole-4-carboxamide]"

# Same assay, conditions: estradiol substrate, LCMS; read-out: HSD17B13 Inhibition_Estradiol Substrate_LCMS: Ki
row,pKi,SMILES
1,6.30 to 7.00,"O=C(Nc1sc(C2CCOCC2)nc1C(=O)NCc1ccccc1C(F)(F)F)c1cc(Cl)c(O)c(Cl)c1 [Example 82, 5-(3,5-dichloro-4-hydroxybenzamido)-2-(tetrahydro-2H-pyran-4-yl)-N-(2-(trifluoromethyl)benzyl)thiazole-4-carboxamide]"
2,6.30 to 7.00,"O=C(Nc1sc(C2CCOCC2)nc1C(=O)NCc1ccccc1C(F)(F)F)c1cc(Cl)c(O)c(Cl)n1 [Example 81, 5-(4,6-dichloro-5-hydroxypicolinamido)-2-(tetrahydro-2H-pyran-4-yl)-N-(2-(trifluoromethyl)benzyl)thiazole-4-carboxamide]"
